The test system of assay [1] is ACC (acetyl-CoA carboxylase). Briefly: p-ACC expression level in L6 cell line by Western blot. It is filed as cell-based. Particulars: Rattus norvegicus, L6 cells, 2 hours compound treatment, read-out: Activity AC1.3 (ACCp). On the procedure:
(§1) Evaluation of p-AMPK and p-ACC expression level in L6 cell line by Western-Blot
(§2) This method evaluates the changes of AMP-activated protein kinase (AMPK) and ACC (acetyl-CoA carboxylase) activity by small molecular modulators through detecting the level of p-AMPK and p-ACC proteins in L6 cells using Western blot.
(§3) L6 cells are maintained in DMEM medium supplemented with 10% FBS in 10-cm dishes. Prior to compounds treatment, L6 cells are seeded in 12-well-plates at concentration of 3×10^4 cells per well. After 24 hours of incubation in 12-well plates, L6 cells are differentiated by replacing the 10% FBS-DMEM medium with 2% FBS-DMEM. Differentiation usually takes 5 days, during which the culture medium is changed every 2 days.
(§4) The compound concentrations typically range from 32 μM to 0.5 μM with 2-fold dilution in 2 ml DMEM and 7 doses. The final DMSO concentration is 0.4%. Berberine is used as a positive control at concentration of 16 μM. Before compound treatment, starve L6 cells for 2 hours by replacing the medium with DMEM, and then gently aspirate the media from each well. Add the compounds into the plates and incubate at 37 degree 5% CO2 for 2 hours.
(§5) Prepare lysis buffer (RIPA buffer with protease-inhibitors and phosphorate-inhibitors) and place it on ice. After two hour's compound treatment, aspirate the medium from 12-well plates, add 70 ul lysis buffer to each well and keep the plates on ice for 5 min. Then scrape the cell lysate off the plates and transfer it to 1.5 ml eppendorf tubes. Keep the tube on ice for more 10 min, centrifugate the lysate at 13000 rpm, 4 degrees for 15 min and transfer the supernatant to clean tubes.
(§6) Determine protein concentration for each sample using Quickstart Bradford protein quantitation kit. Mix 20 ug protein sample with 4 times loading buffer, heat them at 100° C. for 5 min, store the sample in −80° C. or perform Western blot assay directly. For Western blot assay, load 20 ug samples and 10 ul Pre-stained Protein Maker into 4-12% SDS-PAGE gradient gel. Run the samples at 100 V in the stacking gel and at 120 V in resolving gel until the Bromophenol dye reaches the bottom. Transfer the electrophoresed proteins to a PVDF membrane using Bio-Rad's Transblot for 120 min at 300 mA. Following the completion of transfer, the membrane is blocked with 5% non-fat milk for 2 hours at room temperature before incubated with primary antibody (p-AMPK and p-ACC) at 4° C. overnight. On the next day wash the membrane twice with TBST, add secondary antibody and incubate for 1 hour at room temperature. Wash the membrane twice with TBST. Develop p-AMPK and p-ACC protein expression level on the film in dark room with Amersham ECL plus kit. The bands of each sample are quantitated by Bio-Rad system, The AC1.3 value is analyzed using Prism 5.0.
(In general: A western blot detects proteins with antibodies after separation by electrophoresis.)

Assay [2] has as its system AMP-activated protein kinase (AMPK). Briefly: p-AMPK expression level in L6 cell line by Western blot. It is filed as cell-based. Particulars: L6 cells, 2 hours compound treatment. On the procedure: as §1, §2, §3, §4, §5, §6

SMILES strings stand for the structures. A value given as a limit tells only on which side of the number the result lay.

As for `CC1(C)CC(c2cccc(N3CCOCC3)c2)Nc2ccc(C(=O)NS(=O)(=O)C3CC3)cc21` (stereo not drawn) [Example 1, Cyclopropanesulfonic acid [4,4-dimethyl-2-(3-morpholin-4-yl-phenyl)-1,2,3,4-tetrahydro-quinoline-6-carbonyl]-amide], the EC (1.3-fold) in assay [1] is 1.4 µM.

On to `CC1(C)CC(c2cc(F)cc(N3CCOCC3)c2)Nc2ccc(C(=O)NS(=O)(=O)C3CC3)cc21` (stereo not drawn) [Example 6, Cyclopropanesulfonic acid [2-(3-fluoro-5-morpholin-4-yl-phenyl)-4,4-dimethyl-1,2,3,4-tetrahydro-quinoline-6-carbonyl]-amide], for which the EC (1.3-fold) in assay [1] was 3.5 µM.

Take `CC1(c2ccccc2)CC(c2ccc(F)c(Cl)c2)Nc2ccc(C(=O)NS(C)(=O)=O)cc21` (stereo not drawn) [Example 7, N-[2-(3-chloro-4-fluoro-phenyl)-4-methyl-4-phenyl-1,2,3,4-tetrahydro-quinoline-6-carbonyl]-methanesulfonamide]: the EC (1.3-fold) in assay [1] is less than 16 µM.

On to `CCCS(=O)(=O)NC(=O)c1ccc2c(c1)C(C)(C)CC(c1ccc(F)c(Cl)c1)N2` (stereo not drawn) [Example 8, Propane-1-sulfonic acid [2-(3-chloro-4-fluoro-phenyl)-4,4-dimethyl-1,2,3,4-tetrahydro-quinoline-6-carbonyl]-amide], for which the EC (1.3-fold) in assay [1] is less than 32 µM.

With `CC(C)S(=O)(=O)NC(=O)c1ccc2c(c1)C(C)(C)CC(c1cccc(N3CCOCC3)c1)N2` (stereo not drawn) [Example 9, Propane-2-sulfonic acid [4,4-dimethyl-2-(3-morpholin-4-yl-phenyl)-1,2,3,4-tetrahydro-quinoline-6-carbonyl]-amide], the EC (1.3-fold) in assay [1] worked out at 4.5 µM.

As for `CC1(C)CC(c2cccc(N3CCOCC3)c2)Nc2c(C(=O)NS(C)(=O)=O)cccc21` (stereo not drawn) [Example 10, N-[4,4-dimethyl-2-(3-morpholin-4-yl-phenyl)-1,2,3,4-tetrahydro-quinoline-8-carbonyl]-methanesulfonamide], the EC (1.3-fold) in assay [1] was less than 0.2 µM.

`CC1(C)CC(c2cccc(N3CCOCC3)c2)Nc2c(C(=O)NS(=O)(=O)C3CC3)cccc21` (stereo not drawn) [Example 11, Cyclopropanesulfonic acid [4,4-dimethyl-2-(3-morpholin-4-yl-phenyl)-1,2,3,4-tetrahydro-quinoline-8-carbonyl]-amide]: the EC (1.3-fold) in assay [1] worked out at 0.3 µM.

With `CC(C)NS(=O)(=O)c1ccc2c(c1)C(C)(C)CC(c1cccc(N3CCOCC3)c1)N2` (stereo not drawn) [Example 13, 4,4-Dimethyl-2-(3-morpholin-4-yl-phenyl)-1,2,3,4-tetrahydro-quinoline-6-sulfonic acid isopropylamide], the EC (1.3-fold) in assay [1] was 0.4 µM.

As for `CC1(C)CC(c2cccc(N3CCNCC3)c2)Nc2ccc(S(=O)(=O)N3CCOCC3)cc21` (stereo not drawn) [Example 14, 4,4-Dimethyl-6-(morpholine-4-sulfonyl)-2-(3-piperazin-1-yl-phenyl)-1,2,3,4-tetrahydro-quinoline], the EC (1.3-fold) in assay [1] is 4.7 µM.

For `CC(C)(Nc1cccc(C2CC(C)(C)c3cc(S(=O)(=O)NC4CCC4)ccc3N2)c1)C(=O)O` (stereo not drawn) [Example 85, 2-[3-(6-Cyclobutylsulfamoyl-4,4-dimethyl-1,2,3,4-tetrahydro-quinolin-2-yl)-phenylamino]-2-methyl-propionic acid], the “Activity AC1.3 (AMPKp)” value in assay [2] worked out at 0.03 µM.

As for `CC(C)(Nc1cc(F)cc(C2CC(C)(C)c3cc(S(=O)(=O)NC4CCC4)ccc3N2)c1)C(=O)O` (stereo not drawn) [Example 86, 2-[3-(6-Cyclobutylsulfamoyl-4,4-dimethyl-1,2,3,4-tetrahydro-quinolin-2-yl)-5-fluoro-phenylamino]-2-methyl-propionic acid], the “Activity AC1.3 (AMPKp)” value in assay [2] is 0.003 µM.

As to `CC1(C)CC(c2cc(F)cc(NC3(C(=O)O)CC3)c2)Nc2ccc(S(=O)(=O)NC3CCC3)cc21` (stereo not drawn) [Example 87, 1-[3-(6-Cyclobutylsulfamoyl-4,4-dimethyl-1,2,3,4-tetrahydro-quinolin-2-yl)-5-fluoro-phenylamino]-cyclopropanecarboxylic acid], in assay [2], the “Activity AC1.3 (AMPKp)” value is 0.002 µM.

The record behind these values is patent US8809369B2, “Tetrahydroquinoline derivatives” (Hoffmann-La Roche Inc., priority 2011, dated 2014).
